{
  "source": "patent US20240099214A1",
  "about": "“PLANT DEFENCE GENE EXPRESSION” (UPL Corporation Limited, priority 2021, published 2024)",
  "format_in_all_cases": "in vivo, Tomato ecotype corbarino",
  "key": {"[1]": {"test_system": "set of defense genes", "experiment": "qRT-PCR gene expression of the set of tested defence genes in tomato leaves (relative to a-tubulin, compared to water treatment)", "conditions": "for gene expression of the set of defense genes compared to TSWV treatment: 48 hours from the treatment, tomato leaves", "procedure": "(§1) Tomato ecotype “corbarino” reported to be susceptible to TSWV infection was used in the experiment. Plants were grown in pots in a climatic chamber with a photoperiod of 16/8 hour at 25° C.\n(§2) The viral strain (TSWV PV PV-0393) was utilized in the experiment. The virus was mechanically inoculated and propagated on tomato “corbarino”. The inoculum was prepared in an ice-cooled mortar grounding 1 gr of infected tomato tissue in 10 ml of Na-phosphate buffer 0.01M. The fresh prepared inoculum was stored in ice before use. Tomato plants at BBCH16 were dusted with Carborundum 600 mesh and selected leaves were rubbed with some droplets of inoculum. After 5 min. plants were sprayed with sterile water to remove the excess of inoculum and preserve the cell turgor.\n(§3) Four treatments were compared: i) Mock inoculated; ii) TSWV; iii) 0.25% Laminarin; iv) 0.25% Laminarin+TSWV. In the last treatment the virus was inoculated 24 hrs after the laminarin application.\nTotal RNA was extracted from systemic infected tomato leaves by using the Quick-RNA Plant Kit (Zymo Research) following the manufacturer instructions. […] The RNA concentration was quantified by measuring the absorbance at 260 nm using a Nanodrop 2000 (Thermofisher). The purity of all of the RNA samples was assessed at an absorbance ratio of OD260/280 and OD260/230, while its structural integrity was checked by agarose gel electrophoresis. […]\nqPCR reactions were performed with BioRad (Applied Biosystems, Foster City, CA, USA) using SYBR R Green. […] Reactions were run using the cycling parameter described previously (Reid et al., 2006) and the qPCR data were analyzed by the Ct method (Pfaffl, 2001). In order to analyze the qPCR data, a-tubulin gene was used as housekeeping to determine the relative expression level of the other genes analyzed in this work. […] The corresponding qPCR efficiencies (E) were calculated for every primer pair with the software 7300 System SDS software (Applied Biosystems, Foster City, CA, USA) according to the equation E=(10−1/slope−1)×100 (Rutledge and Stewart, 2008). […]"}, "[2]": {"test_system": "AP2-like-ethylene-responsive transcription factor (gene 4, Solyc11g072600.1)", "experiment": "qRT-PCR expression of gene 4 in tomato leaves", "set-up": "key: relative expression normalized to a-tubulin housekeeping gene", "procedure": "as §1, §2, §3\n(§4) Total RNA was extracted from systemic infected tomato leaves by using the Quick-RNA Plant Kit (Zymo Research) following the manufacturer instructions. The extractions were carried out using three plants after 12 h, 24 h, 48 h, 72 h, 7 days after inoculation. Leaves were instantly frozen in liquid nitrogen after cutting to avoid any deterioration of the sample as well as any defense reaction. The RNA concentration was quantified by measuring the absorbance at 260 nm using a Nanodrop 2000 (Thermofisher). The purity of all of the RNA samples was assessed at an absorbance ratio of OD260/280 and OD260/230, while its structural integrity was checked by agarose gel electrophoresis. Only high-quality RNA with OD 260/280 and OD 260/230>2 was used for subsequent steps. Single-stranded cDNA was synthesized from 1 μg of total RNA using an iScript™ Select cDNA Synthesis Kit and random hexamers as primers (Bio-Rad, Milan, Italy), according to the manufacturer's instructions. Three biological replicates were created from the 3 leaves collected to test 15 genes. Alpha tubulin was used as reference gene.\n(§5) qPCR reactions were performed with BioRad (Applied Biosystems, Foster City, CA, USA) using SYBR R Green. Each reaction was performed in 20 μl containing 10 μl of 2× Power SYBR Green PCR Master Mix (Life Technologies), 0.2-0.3 μM primers and cDNA samples diluted 1:20. Each qPCR reaction was performed in triplicate. Reactions were run using the cycling parameter described previously (Reid et al., 2006) and the qPCR data were analyzed by the Ct method (Pfaffl, 2001). In order to analyze the qPCR data, a-tubulin gene was used as housekeeping to determine the relative expression level of the other genes analyzed in this work. For the determination of qPCR efficiency of each primer pairs, a standard curve was performed using the following cDNA dilutions: 1:4, 1:16, 1:64; 1:256 and 1:1024. Every measurement was made in triplicate. The corresponding qPCR efficiencies (E) were calculated for every primer pair with the software 7300 System SDS software (Applied Biosystems, Foster City, CA, USA) according to the equation E=(10−1/slope−1)×100 (Rutledge and Stewart, 2008).\n(§6) The significance of the differences between the gene expressions levels were compared by one-way ANOVA (p=0.01) and the means were separated by Tukey post-hoc test using SPSS ver.26 ([…])."}, "[3]": {"test_system": "Tropinone reductase homolog at 1g07440-like (gene 10, Solyc06g083470.2)", "experiment": "qRT-PCR expression of gene 10 in tomato leaves", "set-up": "key: relative expression normalized to a-tubulin housekeeping gene", "procedure": "as §1, §2, §3, §4, §5, §6"}},
  "data": [
    {"substance": "laminarin", "values": [
      {"measurement": "gene expression of the set of defense genes compared to TSWV treatment", "setting": "[1]; 0.25% laminarin + TSWV inoculated 24 hrs after laminarin application", "result": "activates the set of defense genes at higher level compared to TSWV"},
      {"measurement": "gene expression of the set of defense genes compared to TSWV treatment", "setting": "[1]; 0.25% laminarin alone", "result": "activates the set of defense genes at higher level compared to TSWV"},
      {"measurement": "gene expression of the tested genes, overall", "setting": "[1]; 72 hr", "result": "clear evidence of the laminarin effects"},
      {"measurement": "RQ1", "setting": "[2]; 12 hr, Laminarin + virus", "result": 12.523},
      {"measurement": "RQ2", "setting": "[2]; 12 hr, Laminarin + virus", "result": 0.9104},
      {"measurement": "RQ3", "setting": "[2]; 12 hr, Laminarin + virus", "result": 10.299},
      {"measurement": "RQ mean", "setting": "[2]; 12 hr, Laminarin + virus", "result": 10.642},
      {"measurement": "RQ1", "setting": "[2]; 12 hr, Laminarin alone", "result": 0.9931},
      {"measurement": "RQ2", "setting": "[2]; 12 hr, Laminarin alone", "result": 0.9090},
      {"measurement": "RQ3", "setting": "[2]; 12 hr, Laminarin alone", "result": 0.7654},
      {"measurement": "RQ mean", "setting": "[2]; 12 hr, Laminarin alone", "result": 0.8892},
      {"measurement": "RQ1", "setting": "[2]; 24 hr, Laminarin + virus", "result": 1.250},
      {"measurement": "RQ2", "setting": "[2]; 24 hr, Laminarin + virus", "result": 1.754},
      {"measurement": "RQ3", "setting": "[2]; 24 hr, Laminarin + virus", "result": 1.545},
      {"measurement": "RQ mean", "setting": "[2]; 24 hr, Laminarin + virus", "result": 1.516},
      {"measurement": "RQ1", "setting": "[2]; 24 hr, Laminarin alone", "result": 1.744},
      {"measurement": "RQ2", "setting": "[2]; 24 hr, Laminarin alone", "result": 1.728},
      {"measurement": "RQ3", "setting": "[2]; 24 hr, Laminarin alone", "result": 1.516},
      {"measurement": "RQ mean", "setting": "[2]; 24 hr, Laminarin alone", "result": 1.662},
      {"measurement": "RQ1", "setting": "[2]; 48 hr, Laminarin + virus", "result": 13.802},
      {"measurement": "RQ2", "setting": "[2]; 48 hr, Laminarin + virus", "result": 15.313},
      {"measurement": "RQ3", "setting": "[2]; 48 hr, Laminarin + virus", "result": 21.904},
      {"measurement": "RQ mean", "setting": "[2]; 48 hr, Laminarin + virus", "result": 17.006},
      {"measurement": "RQ1", "setting": "[2]; 48 hr, Laminarin alone", "result": 15.231},
      {"measurement": "RQ2", "setting": "[2]; 48 hr, Laminarin alone", "result": 15.784},
      {"measurement": "RQ3", "setting": "[2]; 48 hr, Laminarin alone", "result": 37.709},
      {"measurement": "RQ mean", "setting": "[2]; 48 hr, Laminarin alone", "result": 22.908},
      {"measurement": "RQ1", "setting": "[2]; 72 hr, Laminarin + virus", "result": 35.424},
      {"measurement": "RQ2", "setting": "[2]; 72 hr, Laminarin + virus", "result": 26.180},
      {"measurement": "RQ3", "setting": "[2]; 72 hr, Laminarin + virus", "result": 29.297},
      {"measurement": "RQ mean", "setting": "[2]; 72 hr, Laminarin + virus", "result": 30.301},
      {"measurement": "RQ1", "setting": "[2]; 72 hr, Laminarin alone", "result": 25.807},
      {"measurement": "RQ2", "setting": "[2]; 72 hr, Laminarin alone", "result": 30.148},
      {"measurement": "RQ3", "setting": "[2]; 72 hr, Laminarin alone", "result": 26.311},
      {"measurement": "RQ mean", "setting": "[2]; 72 hr, Laminarin alone", "result": 27.422},
      {"measurement": "RQ1", "setting": "[3]; 12 hr, Laminarin + virus", "result": 11.314},
      {"measurement": "RQ2", "setting": "[3]; 12 hr, Laminarin + virus", "result": 15.111},
      {"measurement": "RQ3", "setting": "[3]; 12 hr, Laminarin + virus", "result": 14.571},
      {"measurement": "RQ mean", "setting": "[3]; 12 hr, Laminarin + virus", "result": 13.665},
      {"measurement": "RQ1", "setting": "[3]; 12 hr, Laminarin alone", "result": 10.134},
      {"measurement": "RQ2", "setting": "[3]; 12 hr, Laminarin alone", "result": 11.716},
      {"measurement": "RQ3", "setting": "[3]; 12 hr, Laminarin alone", "result": 14.046},
      {"measurement": "RQ mean", "setting": "[3]; 12 hr, Laminarin alone", "result": 11.966},
      {"measurement": "RQ1", "setting": "[3]; 24 hr, Laminarin + virus", "result": 12.827},
      {"measurement": "RQ2", "setting": "[3]; 24 hr, Laminarin + virus", "result": 10.653},
      {"measurement": "RQ3", "setting": "[3]; 24 hr, Laminarin + virus", "result": 14.308},
      {"measurement": "RQ mean", "setting": "[3]; 24 hr, Laminarin + virus", "result": 12.596},
      {"measurement": "RQ1", "setting": "[3]; 24 hr, Laminarin alone", "result": 13.673},
      {"measurement": "RQ2", "setting": "[3]; 24 hr, Laminarin alone", "result": 15.462},
      {"measurement": "RQ3", "setting": "[3]; 24 hr, Laminarin alone", "result": 14.026},
      {"measurement": "RQ mean", "setting": "[3]; 24 hr, Laminarin alone", "result": 14.387},
      {"measurement": "RQ1", "setting": "[3]; 48 hr, Laminarin + virus", "result": 10.393},
      {"measurement": "RQ2", "setting": "[3]; 48 hr, Laminarin + virus", "result": 11.439},
      {"measurement": "RQ3", "setting": "[3]; 48 hr, Laminarin + virus", "result": 11.568},
      {"measurement": "RQ mean", "setting": "[3]; 48 hr, Laminarin + virus", "result": 11.133},
      {"measurement": "RQ1", "setting": "[3]; 48 hr, Laminarin alone", "result": 14.550},
      {"measurement": "RQ2", "setting": "[3]; 48 hr, Laminarin alone", "result": 13.402},
      {"measurement": "RQ3", "setting": "[3]; 48 hr, Laminarin alone", "result": 19.692},
      {"measurement": "RQ mean", "setting": "[3]; 48 hr, Laminarin alone", "result": 15.882},
      {"measurement": "RQ1", "setting": "[3]; 72 hr, Laminarin + virus", "result": 10.994},
      {"measurement": "RQ2", "setting": "[3]; 72 hr, Laminarin + virus", "result": 19.941},
      {"measurement": "RQ3", "setting": "[3]; 72 hr, Laminarin + virus", "result": 16.529},
      {"measurement": "RQ mean", "setting": "[3]; 72 hr, Laminarin + virus", "result": 15.821},
      {"measurement": "RQ1", "setting": "[3]; 72 hr, Laminarin alone", "result": 28.092},
      {"measurement": "RQ2", "setting": "[3]; 72 hr, Laminarin alone", "result": 16.708},
      {"measurement": "RQ3", "setting": "[3]; 72 hr, Laminarin alone", "result": 22.307},
      {"measurement": "RQ mean", "setting": "[3]; 72 hr, Laminarin alone", "result": 22.369}
    ]}
  ]
}
